These results are taken from ChEMBL document CHEMBL3045635, “Synthesis and in vitro antimicrobial evaluation of novel 2-amino-6-(phenylthio)-4-(2-(phenylthio)quinolin-3-yl)pyridine-3,5-dicarbonitriles” (2013).

Holding throughout (format): functional
One assay deals with Salmonella typhi. In words: Antibacterial activity against Salmonella enterica subsp. enterica serovar Typhi MTCC 98 after 24 hr by broth microdilution method. The note with it: MTCC 98, 24 h.
The subject of the next assay is Streptococcus pneumoniae. Kind of assay: Antibacterial activity against Streptococcus pneumoniae MTCC 1936 after 24 hr by broth microdilution method. Particulars: MTCC 1936, 24 h.
In another assay the test system is Clostridium tetani. In words: Antibacterial activity against Clostridium tetani MTCC 449 after 24 hr by broth microdilution method. Particulars: MTCC 449, 24 h. On the technique in general: Dilution methods test growth across graded concentrations, often in twofold steps.
A further assay relates to Candida albicans. Kind of assay: Antifungal activity against Candida albicans MTCC 227 after 48 hr by broth microdilution method. The note with it: MTCC 227, 48 h.
A further assay concerns Vibrio cholerae. In words: Antibacterial activity against Vibrio cholerae MTCC 3906 after 24 hr by broth microdilution method. The note with it: MTCC 3906, 24 h.
The test system of the next assay is Bacillus subtilis. In words: Antibacterial activity against Bacillus subtilis MTCC 441 after 24 hr by broth microdilution method. The note with it: MTCC 441, 24 h.
The next assay relates to Aspergillus fumigatus. Kind of assay: Antifungal activity against Aspergillus fumigatus MTCC 3008 after 48 hr by broth microdilution method. Particulars: MTCC 3008, 48 h.
A further assay deals with Escherichia coli. Kind of assay: Antibacterial activity against Escherichia coli MTCC 443 after 24 hr by broth microdilution method. Particulars: MTCC 443, 24 h.

SMILES strings stand for the structures. Values after ≈ are worked out from the molar mass of the structure shown.

For the compound `Cc1ccc(Sc2nc3ccccc3cc2-c2c(C#N)c(N)nc(Sc3ccccc3)c2C#N)cc1`, the MIC with Salmonella typhi amounted to 125 µg/mL (≈ 249 µM); with Streptococcus pneumoniae it was 250 µg/mL (≈ 498 µM); in the assay with Clostridium tetani it was 200 µg/mL (≈ 399 µM); against Candida albicans, 500 µg/mL (≈ 997 µM); against Vibrio cholerae it was 200 µg/mL (≈ 399 µM); against Bacillus subtilis, 250 µg/mL (≈ 498 µM). Also, the values for the MIC against Aspergillus fumigatus and against Escherichia coli were more than 1000 µg/mL and 200 µg/mL (≈ 399 µM), respectively.

Consider `O=Cc1cc2ccccc2nc1Sc1ccc(Cl)cc1`, for which the MIC in the assay on Salmonella typhi is 250 µg/mL (≈ 834 µM); against Streptococcus pneumoniae, 100 µg/mL (≈ 334 µM); in the assay on Clostridium tetani, 200 µg/mL (≈ 667 µM); against Candida albicans, 1000 µg/mL (≈ 3340 µM); with Vibrio cholerae, 200 µg/mL (≈ 667 µM); in the assay on Bacillus subtilis, 250 µg/mL (≈ 834 µM). The MIC with Aspergillus fumigatus is more than 1000 µg/mL; against Escherichia coli, 250 µg/mL (≈ 834 µM).

On to `Cc1ccc(Sc2nc3ccc(C)cc3cc2-c2c(C#N)c(N)nc(Sc3ccc(Cl)cc3)c2C#N)cc1`, for which the MIC against Salmonella typhi turned out to be 100 µg/mL (≈ 182 µM); in the assay on Streptococcus pneumoniae, 250 µg/mL (≈ 454 µM); against Clostridium tetani, 100 µg/mL (≈ 182 µM); in the assay on Candida albicans, 1000 µg/mL (≈ 1820 µM); against Vibrio cholerae it was 200 µg/mL (≈ 364 µM); in the assay with Bacillus subtilis it was 250 µg/mL (≈ 454 µM). Also, the values for the MIC in the assay with Aspergillus fumigatus and in the assay with Escherichia coli were more than 1000 µg/mL and 100 µg/mL (≈ 182 µM), respectively.

Consider `N#Cc1c(N)nc(Sc2ccc(Cl)cc2)c(C#N)c1-c1cc2ccccc2nc1Sc1ccc(Cl)cc1`, for which the MIC in the assay with Salmonella typhi was determined as 200 µg/mL (≈ 359 µM); against Streptococcus pneumoniae it was 100 µg/mL (≈ 180 µM); against Clostridium tetani, 500 µg/mL (≈ 898 µM); in the assay on Candida albicans, 500 µg/mL (≈ 898 µM); in the assay with Vibrio cholerae, 200 µg/mL (≈ 359 µM); with Bacillus subtilis, 250 µg/mL (≈ 449 µM). Further, the MIC against Aspergillus fumigatus was 1000 µg/mL (≈ 1800 µM); with Escherichia coli it was 200 µg/mL (≈ 359 µM).

For `O=C(O)c1cn(C2CC2)c2cc(N3CCNCC3)c(F)cc2c1=O` [CIPROFLOXACIN], the MIC with Salmonella typhi is 25 µg/mL (≈ 75.4 µM); against Streptococcus pneumoniae, 50 µg/mL (≈ 151 µM); with Vibrio cholerae, 25 µg/mL (≈ 75.4 µM); with Escherichia coli, 25 µg/mL (≈ 75.4 µM).

In the case of `N#Cc1c(N)nc(Sc2ccccc2)c(C#N)c1-c1cc2ccccc2nc1Sc1ccccc1`, the MIC amounted to 200 µg/mL (≈ 410 µM) against Salmonella typhi; 500 µg/mL (≈ 1030 µM) against Streptococcus pneumoniae; 500 µg/mL (≈ 1030 µM) with Clostridium tetani; 250 µg/mL (≈ 513 µM) against Candida albicans; 200 µg/mL (≈ 410 µM) against Vibrio cholerae; 500 µg/mL (≈ 1030 µM) against Bacillus subtilis. Further, the MIC was determined as 500 µg/mL (≈ 1030 µM) against Aspergillus fumigatus and 250 µg/mL (≈ 513 µM) in the assay on Escherichia coli.

`CC1(C)S[C@@H]2[C@H](NC(=O)[C@H](N)c3ccccc3)C(=O)N2[C@H]1C(=O)O` [AMPICILLIN]: the minimum inhibitory concentration (MIC) in the assay with Salmonella typhi came to 100 µg/mL (≈ 286 µM); against Streptococcus pneumoniae, 100 µg/mL (≈ 286 µM); in the assay on Clostridium tetani it was 250 µg/mL (≈ 715 µM); with Vibrio cholerae it was 100 µg/mL (≈ 286 µM); with Bacillus subtilis it was 250 µg/mL (≈ 715 µM); against Escherichia coli, 100 µg/mL (≈ 286 µM).

With `Cc1ccc(Sc2nc3ccccc3cc2C=O)cc1`, the MIC in the assay on Salmonella typhi amounted to 250 µg/mL (≈ 895 µM); with Streptococcus pneumoniae it was 250 µg/mL (≈ 895 µM); with Clostridium tetani, 250 µg/mL (≈ 895 µM); in the assay with Candida albicans, 1000 µg/mL (≈ 3580 µM); against Vibrio cholerae, 250 µg/mL (≈ 895 µM); against Bacillus subtilis, 250 µg/mL (≈ 895 µM). Further, the minimal inhibitory concentration (MIC) against Aspergillus fumigatus and in the assay with Escherichia coli was 200 µg/mL (≈ 716 µM) throughout.

Turning to `Cc1ccc(Sc2nc3ccc(C)cc3cc2-c2c(C#N)c(N)nc(Sc3ccccc3)c2C#N)cc1`, the minimal inhibitory concentration (MIC) is 200 µg/mL (≈ 388 µM) in the assay with Salmonella typhi; 250 µg/mL (≈ 485 µM) in the assay with Streptococcus pneumoniae; 500 µg/mL (≈ 970 µM) in the assay on Clostridium tetani; more than 1000 µg/mL in the assay with Candida albicans; 250 µg/mL (≈ 485 µM) in the assay on Vibrio cholerae; 250 µg/mL (≈ 485 µM) against Bacillus subtilis. For the same compound, the figures for the minimal inhibitory concentration (MIC) in the assay with Aspergillus fumigatus and in the assay on Escherichia coli were 500 µg/mL (≈ 970 µM) and 100 µg/mL (≈ 194 µM), respectively.

Turning to `N#Cc1c(N)nc(Sc2ccccc2)c(C#N)c1-c1cc2ccccc2nc1Sc1ccc(Cl)cc1`, the MIC in the assay with Salmonella typhi is 200 µg/mL (≈ 383 µM); in the assay with Streptococcus pneumoniae, 200 µg/mL (≈ 383 µM); in the assay with Clostridium tetani, 200 µg/mL (≈ 383 µM); against Candida albicans, 200 µg/mL (≈ 383 µM); against Vibrio cholerae, 100 µg/mL (≈ 192 µM); in the assay on Bacillus subtilis, 100 µg/mL (≈ 192 µM). The minimum inhibitory concentration (MIC) is 1000 µg/mL (≈ 1920 µM) against Aspergillus fumigatus and 100 µg/mL (≈ 192 µM) against Escherichia coli.

With `Cc1ccc2nc(Sc3ccc(Cl)cc3)c(-c3c(C#N)c(N)nc(Sc4ccccc4)c3C#N)cc2c1`, the MIC in the assay on Salmonella typhi is 200 µg/mL (≈ 373 µM); against Streptococcus pneumoniae, 250 µg/mL (≈ 466 µM); in the assay with Clostridium tetani it was 250 µg/mL (≈ 466 µM); against Candida albicans, 1000 µg/mL (≈ 1870 µM); in the assay on Vibrio cholerae, 100 µg/mL (≈ 187 µM); against Bacillus subtilis, 250 µg/mL (≈ 466 µM). Besides, the MIC in the assay on Aspergillus fumigatus was more than 1000 µg/mL; with Escherichia coli it was 62.5 µg/mL (≈ 117 µM).

Consider `Cc1ccc2nc(Sc3ccc(Cl)cc3)c(-c3c(C#N)c(N)nc(Sc4ccc(Cl)cc4)c3C#N)cc2c1`, for which the minimal inhibitory concentration (MIC) was 100 µg/mL (≈ 175 µM) with Salmonella typhi; 500 µg/mL (≈ 876 µM) in the assay on Streptococcus pneumoniae; 500 µg/mL (≈ 876 µM) against Clostridium tetani; 500 µg/mL (≈ 876 µM) with Candida albicans; 200 µg/mL (≈ 351 µM) in the assay with Vibrio cholerae; 500 µg/mL (≈ 876 µM) in the assay with Bacillus subtilis. The minimum inhibitory concentration (MIC) against Aspergillus fumigatus came to 500 µg/mL (≈ 876 µM); in the assay on Escherichia coli, 50 µg/mL (≈ 87.6 µM).

`Cc1ccc(Sc2nc3ccccc3cc2-c2c(C#N)c(N)nc(Sc3ccc(C)cc3)c2C#N)cc1`: the MIC came out at 250 µg/mL (≈ 485 µM) in the assay on Salmonella typhi; 200 µg/mL (≈ 388 µM) in the assay with Streptococcus pneumoniae; 250 µg/mL (≈ 485 µM) against Clostridium tetani; 1000 µg/mL (≈ 1940 µM) against Candida albicans; 200 µg/mL (≈ 388 µM) against Vibrio cholerae; 250 µg/mL (≈ 485 µM) against Bacillus subtilis. The results for the MIC with Aspergillus fumigatus and in the assay on Escherichia coli were 1000 µg/mL (≈ 1940 µM) and 250 µg/mL (≈ 485 µM), respectively.

A word on the MIC: it is the lowest concentration that inhibits growth of the organism.
